Experimental data taken from US10703746B2, “Mutant IDH1 inhibitors useful for treating cancer” (THE UNITED STATES OF AMERICA, AS REPRESENTED BY THE …, priority 2014, dated 2020).

Tests used:
[1] = target: IDH1 R132C (Homo sapiens, UniProt O75874, R132C); experiment: IDH1 R132C enzymatic assay (NADPH depletion coupled to diaphorase/resazurin); type: biochemical; conditions: IDH1 R132C enzymatic inhibition, IC50 class
Procedure, shortened: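 NADPH depletion, read via diaphorase/resazurin coupling, after adding substrate at 0.6 mM α-KG and 0.012 mM NADPH. Beforehand, 0.00032 mg/mL enzyme sat with compound 30 min at room temperature in pH 6.5 potassium phosphate buffer with MgCl2, glycerol and BSA.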

[2] = target: IDH1 R132H (Homo sapiens, UniProt O75874, R132H); experiment: IDH1 R132H enzymatic assay (NADPH depletion coupled to diaphorase/resazurin); type: biochemical; conditions: IDH1 R132H enzymatic inhibition, IC50 class
Chain of IDH1 R132H (O75874 whole entry R132H): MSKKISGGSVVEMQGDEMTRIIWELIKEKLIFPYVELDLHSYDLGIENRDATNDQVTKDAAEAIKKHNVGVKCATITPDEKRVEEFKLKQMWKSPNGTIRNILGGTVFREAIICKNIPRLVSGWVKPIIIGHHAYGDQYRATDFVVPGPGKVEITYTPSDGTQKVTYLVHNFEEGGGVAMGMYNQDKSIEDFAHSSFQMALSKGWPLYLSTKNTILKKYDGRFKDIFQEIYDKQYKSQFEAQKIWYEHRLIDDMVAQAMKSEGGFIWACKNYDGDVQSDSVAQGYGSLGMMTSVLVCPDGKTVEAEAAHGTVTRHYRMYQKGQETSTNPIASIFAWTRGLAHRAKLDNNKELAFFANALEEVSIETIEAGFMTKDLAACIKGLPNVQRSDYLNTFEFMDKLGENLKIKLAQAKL

Chain of IDH1 R132C (O75874 whole entry R132C): as the sequence (O75874 whole entry R132H) above, with H132C counted along it

SMILES	IC50 [1] [µM]	IC50 [2] [µM]
CCc1cccc(CC)c1-n1c(C)c(C(=O)NC2CC2)cc(-c2nc(-c3ccc(Cl)cc3)cs2)c1=O [Compound 265]	1 to 5	1 to 5
COc1ccc(OC)c(-n2c3c(cc(-c4ncc(-c5ccc(Cl)cc5)s4)c2=O)C(=O)CC(C)(C)C3)c1 [Compound 266]	> 20	> 20
CCc1cccc(CC)c1-n1c(CC(C)C)c(C(=O)N2CCNC[C@H]2C)cc(-c2nc(-c3ccc(Cl)cc3)cs2)c1=O [Compound 267]	< 0.3	0.3 to 1
CCc1cccc(CC)c1-n1c(C)c(C(=O)OC)cc(-c2nc(-c3ccc(Cl)cc3)cs2)c1=O [Compound 268, methyl 5-(4-(4-chlorophenyl)thiazol-2-yl)-1-(2,6-diethylphenyl)-2-methyl-6-oxo-1,6-dihydropyridine-3-carboxylate]	5 to 20	> 20
CC1(C)CC(=O)c2cc(-c3nc(-c4ccc(Cl)cc4)cs3)c(=O)n(-c3ccccc3CO)c2C1 [Compound 269]	1 to 5	5 to 20
CCc1cccc(CC)c1-n1c(C)c(C(=O)NC2CCCCC2O)cc(-c2nc(-c3ccc(Cl)cc3)cs2)c1=O (stereo not drawn) [Compound 270]	1 to 5	1 to 5
CCc1cccc(CC)c1-n1c(C)c(C(=O)N(C)C)cc(-c2nc(-c3ccc(Cl)cc3)cs2)c1=O [Compound 271]	1 to 5	1 to 5
CCc1cccc(CC)c1-n1c(CC(C)C)c(C(=O)N2CCNCC2CO)cc(-c2nc(-c3ccc(Cl)cc3)cs2)c1=O (stereo not drawn) [Compound 272]	< 0.3	0.3 to 1
CCc1cccc(CC)c1-n1c(CC(C)C)c(C(=O)N2CCNC(C)(CO)C2)cc(-c2nc(-c3ccc(Cl)cc3)cs2)c1=O (stereo not drawn) [Compound 273]	< 0.3	0.3 to 1
CCc1cccc(CC)c1-n1c(CC(C)C)c(C(=O)N2CCNCC2(C)C)cc(-c2nc(-c3ccc(Cl)cc3)cs2)c1=O [Compound 274]	< 0.3	0.3 to 1
CCc1cccc(CC)c1-n1c(COC)c(C(=O)N2CCNCC2)cc(-c2nc(-c3ccc(Cl)cc3)cs2)c1=O [Compound 275]	< 0.3	< 0.3
CCc1cccc(CC)c1-n1c(CC(C)C)c(C(=O)NC[C@@H](C)O)cc(-c2nc(-c3ccc(Cl)cc3)cs2)c1=O [Compound 276]	< 0.3	0.3 to 1
Cc1noc(-n2c3c(cc(-c4nc(-c5ccc(Cl)cc5)cs4)c2=O)C(=O)CC(C)(C)C3)c1C [Compound 277]	1 to 5	1 to 5
CCc1cccc(CC)c1-n1c(CCOC)c(C(=O)N2CCNCC2)cc(-c2nc(-c3ccc(Cl)cc3)cs2)c1=O [Compound 278]	< 0.3	< 0.3
CCc1cccc(C)c1-n1c2c(cc(-c3nc(-c4ccc(Cl)cc4)cs3)c1=O)C(=O)CC(C)(C)C2 [Compound 279]	0.3 to 1	1 to 5
COc1ccc(OC)c(-n2c3c(cc(-c4nc(-c5ccc(Cl)cc5)cs4)c2=O)C(=O)CNC3)c1 [Compound 280]	5 to 20	5 to 20
CCc1cccc(CC)c1-n1c2c(cc(-c3nc(-c4ccc(O)cc4)cs3)c1=O)C(=O)CC(C)(C)C2 [Compound 281]	5 to 20	5 to 20
CCc1cccc(CC)c1-n1c2c(cc(-c3nc(-c4ccc(Cl)cc4)cs3)c1=O)C(=O)CC(C)(C)C2 [Compound 282]	< 0.3	0.3 to 1
CCc1cccc(CC)c1-n1c(CC(C)C)c(C(=O)N2CCN[C@H](CO)C2)cc(-c2nc(-c3ccc(Cl)cc3)cs2)c1=O [Compound 283]	< 0.3	0.3 to 1
COc1ccc(OC)c(-n2c3c(cc(-c4cccc(-c5ccc(Cl)cc5)n4)c2=O)C(=O)CC(C)(C)C3)c1 [Compound 284]	5 to 20	5 to 20
CCOc1ccc(-c2nc(-c3cc(C(=O)N4CCNCC4)c(CC(C)C)n(-c4c(CC)cccc4CC)c3=O)sc2C)cc1 [Compound 285]	< 0.3	< 0.3
CC(=O)c1ccccc1-n1c2c(cc(-c3nc(-c4ccc(Cl)cc4)cs3)c1=O)C(=O)CC(C)(C)C2 [Compound 286]	1 to 5	1 to 5
COc1ccc(OC)c(-n2c3c(cc(-c4nnn(-c5ccc(Cl)cc5)n4)c2=O)C(=O)CC(C)(C)C3)c1 [Compound 287]	1 to 5	> 20
Cc1c(N)cccc1-n1c2c(cc(-c3nc(-c4ccc(Cl)cc4)cs3)c1=O)C(=O)CC(C)(C)C2 [Compound 288]	1 to 5	1 to 5
COc1ccc(OC)c(-n2c(=O)c(-c3nc(-c4ccc(Cl)cc4)cs3)cc3c(OC)cncc32)c1 [Compound 289]	5 to 20	> 20
COc1ccc(OC)c(-n2c3c(cc(-c4c[nH]c(-c5ccccc5)n4)c2=O)C(=O)CC(C)(C)C3)c1 [Compound 290]	1 to 5	1 to 5
COc1ccc(OC)c(-n2c3c(cc(-c4nc(-c5ccc(Cl)cc5)c[nH]4)c2=O)C(=O)CC(C)(C)C3)c1 [Compound 291]	1 to 5	1 to 5
